# Assay results reported in patent US20230203058A1, “MACROCYCLIC DIAMINE DERIVATIVES AS ENT INHIBITORS FOR THE TREATMENT OF CANCERS, AND COMBINATION THEREOF WITH ADENOSINE RECEPTOR ANTAGONISTS” (ITEOS BELGIUM SA, priority 2020, published 2023).
# Biological target: T1, human ENT1 (Homo sapiens, UniProt Q99808)
# T1 sequence (Q99808 1-456): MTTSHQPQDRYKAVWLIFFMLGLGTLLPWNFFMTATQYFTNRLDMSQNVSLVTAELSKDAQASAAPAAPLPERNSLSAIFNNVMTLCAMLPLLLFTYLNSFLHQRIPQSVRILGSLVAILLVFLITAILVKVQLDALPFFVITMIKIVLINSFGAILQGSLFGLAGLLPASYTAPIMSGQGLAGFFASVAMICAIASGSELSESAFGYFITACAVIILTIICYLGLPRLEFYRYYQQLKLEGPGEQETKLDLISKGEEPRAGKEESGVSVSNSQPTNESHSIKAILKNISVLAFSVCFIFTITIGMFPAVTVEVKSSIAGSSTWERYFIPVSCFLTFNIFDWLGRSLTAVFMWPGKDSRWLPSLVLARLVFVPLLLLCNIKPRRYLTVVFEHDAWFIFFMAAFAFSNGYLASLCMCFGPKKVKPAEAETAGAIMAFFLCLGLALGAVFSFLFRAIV
# Assay: ENT1 binding assay (competition with Sahenta-DY647 on JAR cells)
# Design: JAR cells expressing ENT1 were bought from ATCC® (HTB-144TM); host or cells: JAR cells (human choriocarcinoma line; whole cells)
# Conditions: competition with Sahenta-DY647 100 nM, 4° C.
# Description: The present assay aims at showing that the compounds of the present invention can bind to human ENT1. The principle of the assay is a competition between the compounds of this invention and Sahenta-DY647, an ENT1 inhibitor that emits fluorescence (Ex = 630 nm, Em = 670 nm). By measuring the fluorescence at the end of the assay we could assess the binding potency of the compounds of the present invention.
# JAR cells expressing ENT1 were bought from ATCC® (HTB-144TM). Cells were cultured in RPMI 1640 medium (LONZA®, #BE12-702F/U1) supplemented with 10% FBS (GIBCO®, #10270-106), 10 mM Hepes (LONZA®, #BE17-737E), 1 mM Sodium Pyruvate (LONZA®, #BE13-115E) and 2% Penicillin/Streptomycin (LONZA®, #DE17-603E) at 37° C. and 5% CO2. The assay was conducted on the following buffer: HBSS (LONZA®, #LO-527F) supplemented with 10 mM Hepes (LONZA®, #BE17-737E) and 0.1% BSA (Miltenyi®, #130-091-376) on the day of the assay. JAR cells were resuspended in the described buffer. Compounds of the present invention and Sahenta-DY647 were diluted 200X in the described buffer.
# A total of 50000 cells were pre-incubated for 30 min at 4° C. with the compounds of the present invention before adding the corresponded IC90 of Sahenta-DY647 (100 nM) and incubate once more for 30 min at 4° C. The total volume of the reaction was 100 µL (50 µL of cells, 25 µL of the compounds of the present invention and 25 µL of Sahenta-DY647) in a 96 well plate, U-bottom (Greiner®, #650-180). The plates were washed 2X by centrifugation (4 min, 400 rcf at 4° C.) in the same buffer. Cells were resuspended in 70 µL of the buffer and 50 µL was transferred to a Black 384 Optiplate (PerkinElmer®, #6007279). Fluorescence (Ex = 630 nm, Em = 670 nm) was acquired on a Spectramax i3x (Molecular Devices®).
row,Compound,IC50
1,"COc1cc2cc(c1OC)OCCCC(OC(=O)c1ccccc1F)CCN1CCCN(CCCOC2=O)CC1 (stereo not shown) [Compound 47, 74,75-dimethoxy-6-oxo-5,8-dioxa-1(1,4)-diazepana-7(1,3)-benzenacyclotetradecaphane-12-yl 2-fluorobenzoate]",0.001 to 0.02 µM
2,"COc1cc2cc(c1OC)OCCCC(OC(=O)c1cc(C)cc(C(F)(F)F)c1)CCN1CCCN(CCCOC2=O)CC1 (stereo not shown) [Compound 49, 74,75-dimethoxy-6-oxo-5,8-dioxa-1(1,4)-diazepana-7(1,3)-benzenacyclotetradecaphane-12-yl 3-methyl-5-(trifluoromethyl)benzoate]",0.02 to 0.5 µM
3,"COc1ccc(C(=O)OC2CCCOc3cc(cc(OC)c3OC)C(=O)OCCCN3CCCN(CC2)CC3)c(F)c1 (stereo not shown) [Compound 50, 74,75-dimethoxy-6-oxo-5,8-dioxa-1(1,4)-diazepana-7(1,3)-benzenacyclotetradecaphane-12-yl 2-fluoro-4-methoxybenzoate]",0.001 to 0.02 µM
4,"COc1ccc(C(=O)OC2CCCOc3cc(cc(OC)c3OC)C(=O)OCCCN3CCCN(CC2)CC3)c(OC(F)(F)F)c1 (stereo not shown) [Compound 51, 74,75-dimethoxy-6-oxo-5,8-dioxa-1(1,4)-diazepana-7(1,3)-benzenacyclotetradecaphane-12-yl 4-methoxy-2-(trifluoromethoxy)benzoate]",0.02 to 0.5 µM
5,"COc1cc2cc(c1OC)OCCCC(OC(=O)c1cccc3ncccc13)CCN1CCCN(CCCOC2=O)CC1 (stereo not shown) [Compound 56, 74,75-dimethoxy-6-oxo-5,8-dioxa-1(1,4)-diazepana-7(1,3)-benzenacyclotetradecaphane-12-yl quinoline-5-carboxylate]",0.001 to 0.02 µM
6,"COc1cc2cc(c1OC)OCCCC(OC(=O)c1cocn1)CCN1CCCN(CCCOC2=O)CC1 (stereo not shown) [Compound 57, 74,75-dimethoxy-6-oxo-5,8-dioxa-1(1,4)-diazepana-7(1,3)-benzenacyclotetradecaphane-12-yl oxazole-4-carboxylate]",0.001 to 0.02 µM
7,"COc1cc2cc(c1OC)OCCCC(OC(=O)CC(C)C)CCN1CCCN(CCCOC2=O)CC1 (stereo not shown) [Compound 61, 74,75-dimethoxy-6-oxo-5,8-dioxa-1(1,4)-diazepana-7(1,3)-benzenacyclotetradecaphane-12-yl 3-methylbutanoate]",0.02 to 0.5 µM
8,"COc1cc2cc(c1OC)OCCCC(OC(=O)CCC(F)(F)F)CCN1CCCN(CCCOC2=O)CC1 (stereo not shown) [Compound 62, 74,75-dimethoxy-6-oxo-5,8-dioxa-1(1,4)-diazepana-7(1,3)-benzenacyclotetradecaphane-12-yl 4,4,4-trifluorobutanoate]",0.001 to 0.02 µM
9,"COc1cc2cc(c1OC)OCCCC(OC(=O)C1CCCCC1)CCN1CCCN(CCCOC2=O)CC1 (stereo not shown) [Compound 63, 74,75-dimethoxy-6-oxo-5,8-dioxa-1(1,4)-diazepana-7(1,3)-benzenacyclotetradecaphane-12-yl cyclohexanecarboxylate]",0.001 to 0.02 µM
10,"COc1cc2cc(c1OC)OCCCC(OC(=O)C1CCN(C)CC1)CCN1CCCN(CCCOC2=O)CC1 (stereo not shown) [Compound 64, 74,75-dimethoxy-6-oxo-5,8-dioxa-1(1,4)-diazepana-7(1,3)-benzenacyclotetradecaphane-12-yl 1-methylpiperidine-4-carboxylate]",> 0.5 µM
11,"COc1cc2cc(c1OC)OCCCC(OC(=O)C1CC(C)(C)C1)CCN1CCCN(CCCOC2=O)CC1 (stereo not shown) [Compound 65, 74,75-dimethoxy-6-oxo-5,8-dioxa-1(1,4)-diazepana-7(1,3)-benzenacyclotetradecaphane-12-yl 3,3-dimethylcyclobutane-1-carboxylate]",0.02 to 0.5 µM
12,"COc1cc2cc(c1OC)OCCCC(OC(=O)CC1COC1)CCN1CCCN(CCCOC2=O)CC1 (stereo not shown) [Compound 66, 74,75-dimethoxy-6-oxo-5,8-dioxa-1(1,4)-diazepana-7(1,3)-benzenacyclotetradecaphane-12-yl 2-(oxetan-3-yl)acetate]",0.001 to 0.02 µM
13,"COc1cc2cc(c1OC)OCCCC(OC(=O)[C@H]1[C@@H]3COC[C@@H]31)CCN1CCCN(CCCOC2=O)CC1 (stereo partly drawn) [Compound 67, 74,75-dimethoxy-6-oxo-5,8-dioxa-1(1,4)-diazepana-7(1,3)-benzenacyclotetradecaphane-12-yl (1R,5S,6r)-3-oxabicyclo[3.1.0]hexane-6-carboxylate]",0.02 to 0.5 µM
14,"COc1cc2cc(c1OC)OCCCC(OC(=O)C1CC(=O)N(Cc3ccccc3)C1)CCN1CCCN(CCCOC2=O)CC1 (stereo not shown) [Compound 69, 74,75-dimethoxy-6-oxo-5,8-dioxa-1(1,4)-diazepana-7(1,3)-benzenacyclotetradecaphane-12-yl 1-benzyl-5-oxopyrrolidine-3-carboxylate]",0.001 to 0.02 µM
15,"COc1cc2cc(c1OC)OCCCC(OC(=O)C1CCC(OC)CC1)CCN1CCCN(CCCOC2=O)CC1 (stereo not shown) [Compound 70, 74,75-dimethoxy-6-oxo-5,8-dioxa-1(1,4)-diazepana-7(1,3)-benzenacyclotetradecaphane-12-yl 4-methoxycyclohexane-1-carboxylate]",0.001 to 0.02 µM
16,"COc1cc2cc(c1OC)OCCCC(OC(=O)c1c(F)cccc1F)CCN1CCCN(CCCOC2=O)CC1 (stereo not shown) [Compound 71, 74,75-dimethoxy-6-oxo-5,8-dioxa-1(1,4)-diazepana-7(1,3)-benzenacyclotetradecaphane-12-yl 2,6-difluorobenzoate]",0.001 to 0.02 µM

# Other lines, results leading:
row,IC50,Compound
1,0.001 to 0.02 µM,"COc1cc2cc(c1OC)OCCCC(OC(=O)c1ccc(O)cc1)CCN1CCCN(CCCOC2=O)CC1 (stereo not shown) [Compound 41, 74,75-dimethoxy-6-oxo-5,8-dioxa-1(1,4)-diazepana-7(1,3)-benzenacyclotetradecaphane-12-yl 4-hydroxybenzoate]"
2,0.001 to 0.02 µM,"COc1cc2cc(c1OC)OCCCC(OC(=O)c1cccc(C(F)(F)F)c1)CCN1CCCN(CCCOC2=O)CC1 (stereo not shown) [Compound 44, 74,75-dimethoxy-6-oxo-5,8-dioxa-1(1,4)-diazepana-7(1,3)-benzenacyclotetradecaphane-12-yl 3-(trifluoromethyl)benzoate]"
3,0.001 to 0.02 µM,"COc1cc2cc(c1OC)OCCCC(OC(=O)c1cccc(S(C)(=O)=O)c1)CCN1CCCN(CCCOC2=O)CC1 (stereo not shown) [Compound 45, 74,75-dimethoxy-6-oxo-5,8-dioxa-1(1,4)-diazepana-7(1,3)-benzenacyclotetradecaphane-12-yl 3-(methylsulfonyl)benzoate]"
4,0.001 to 0.02 µM,"COc1cc2cc(c1OC)OCCCC(OC(=O)c1ccc(Br)c(C#N)c1)CCN1CCCN(CCCOC2=O)CC1 (stereo not shown) [Compound 48, 74,75-dimethoxy-6-oxo-5,8-dioxa-1(1,4)-diazepana-7(1,3)-benzenacyclotetradecaphane-12-yl 4-bromo-3-cyanobenzoate]"
5,0.001 to 0.02 µM,"COc1cc2cc(c1OC)OCCCC(OC(=O)c1cccnc1)CCN1CCCN(CCCOC2=O)CC1 (stereo not shown) [Compound 53, 74,75-dimethoxy-6-oxo-5,8-dioxa-1(1,4)-diazepana-7(1,3)-benzenacyclotetradecaphane-12-yl nicotinate]"
6,0.001 to 0.02 µM,"COc1cc2cc(c1OC)OCCCC(OC(=O)c1ccc(O)nc1)CCN1CCCN(CCCOC2=O)CC1 (stereo not shown) [Compound 55, 74,75-dimethoxy-6-oxo-5,8-dioxa-1(1,4)-diazepana-7(1,3)-benzenacyclotetradecaphane-12-yl 6-hydroxynicotinate]"
7,0.001 to 0.02 µM,"COc1cc2cc(c1OC)OCCCC(OC(=O)C1CNC(=O)C1)CCN1CCCN(CCCOC2=O)CC1 (stereo not shown) [Compound 68, 74,75-dimethoxy-6-oxo-5,8-dioxa-1(1,4)-diazepana-7(1,3)-benzenacyclotetradecaphane-12-yl 5-oxopyrrolidine-3-carboxylate]"
8,0.001 to 0.02 µM,"COc1cc2cc(c1OC)OCCCC(OC(=O)c1cccc(C#N)c1)CCN1CCCN(CCCOC2=O)CC1 (stereo not shown) [Compound 73, 74,75-dimethoxy-6-oxo-5,8-dioxa-1(1,4)-diazepana-7(1,3)-benzenacyclotetradecaphane-12-yl 3-cyanobenzoate]"
9,0.001 to 0.02 µM,"COc1cc2cc(c1OC)OCCCC(OC(=O)c1ccc3c(c1)CCC(=O)N3)CCN1CCCN(CCCOC2=O)CC1 (stereo not shown) [Compound 74, 74,75-dimethoxy-6-oxo-5,8-dioxa-1(1,4)-diazepana-7(1,3)-benzenacyclotetradecaphane-12-yl 2-oxo-1,2,3,4-tetrahydroquinoline-6-carboxylate]"
